Patent publication US20080305186A1, “Method and Composition for the Treatment of Cardiac Hypertrophy” (BOARD OF REGENTS, THE UNIVERSITY OF TEXAS SYSTEM, priority 2007, published 2008)

System: cardiac gene expression
Test: Microarray analysis of cardiac gene expression (GeneChip Mouse Genome 430 2.0)
Format: in vivo, mice
Protocol: Microarray Sample Preparation and Analysis. Animal hearts were rapidly removed, and the atria and right ventricles were cut and immediately plunged into TRIzol Reagent (Life Technologies). Total RNA was isolated following the manufacturer's instructions, purified by phenol-chloroform extraction and then ethanol precipitation, and 20 μg further processed for microarray analysis. Briefly, cDNA synthesis, in vitro transcription, and labeling and fragmentation to produce the oligonucleotide probes were performed as instructed by the GeneChip manufacturer (Affymetrix). The probes were first hybridized to a test array (Affymetrix) and then to the GeneChip Mouse Genome 430 2.0 Array, using the GeneChip Hybridization Oven 640. The chips were washed in a GeneChip Fluidics Station 450 (Affymetrix), and the results were visualized with a GeneChip G7 scanner (Affymetrix). RMA normalization, pairwise comparisons, Student's t test and Benjamini and Hochberg correction were subsequently performed using GeneSifter (VizX Labs, Seattle, Wash.) and Spotfire DecisionSite 8.3 (Spotfire, Inc., Somerville, Mass.).
Effects on Gene Expression Profile. […] One mouse heart was used for each array, and was performed in triplicate, generating a total of 12 arrays. GeneSifter was used to perform RMA normalization, pairwise comparisons of averaged signal intensity values, and Student's t-test with Benjamini and Hochberg correction, and Spotfire was used to perform pairwise comparisons. […] Additionally, genes that were altered between any two N or cardiac hypertrophy samples were removed, as these alterations most likely represented normal variations between mice.

[1] = heart, drug + isoproterenol vs isoproterenol only
[2] = mouse heart, vs isoproterenol only (CH), CH vs normal 1.6
[3] = mouse heart, vs isoproterenol only (CH), CH vs normal 1.7
[4] = mouse heart, vs isoproterenol only (CH), CH vs normal 1.8
[5] = mouse heart, vs isoproterenol only (CH), CH vs normal 1.9
[6] = mouse heart, vs isoproterenol only (CH), CH vs normal 2.0
[7] = mouse heart, vs isoproterenol only (CH), CH vs normal 2.1
[8] = mouse heart, vs isoproterenol only (CH), CH vs normal 2.2
[9] = mouse heart, vs isoproterenol only (CH), CH vs normal 2.3
[10] = mouse heart, vs isoproterenol only (CH), CH vs normal 2.4
[11] = mouse heart, vs isoproterenol only (CH), CH vs normal 2.5
[12] = mouse heart, vs isoproterenol only (CH), CH vs normal 2.6
[13] = mouse heart, vs isoproterenol only (CH), CH vs normal 2.7
[14] = mouse heart, vs isoproterenol only (CH), CH vs normal 2.9
[15] = mouse heart, vs isoproterenol only (CH), CH vs normal 3.0
[16] = mouse heart, vs isoproterenol only (CH), CH vs normal 3.1
[17] = mouse heart, vs isoproterenol only (CH), CH vs normal 3.2

SMILES: C[C@H]1c2cccc(O)c2C(=O)C2=C(O)[C@]3(O)C(=O)C(C(N)=O)=C(O)[C@@H](N(C)C)[C@@H]3[C@@H](O)[C@@H]21 [doxycycline]
- FC EGF, latrophilin seven transmembrane domain containing 1 (Eltd1) (GenBank NM_133222, vs mice given only isoproterenol): −1.7
- FC ERBB receptor feedback inhibitor 1 (Errifi1) (GenBank NM_133753, vs mice given only isoproterenol): −2.7
- FC F-box only protein 31 (Fboxo31) (GenBank NM_133765, vs mice given only isoproterenol): −2.4
- FC Ras homolog gene family, member U (Arhu) (Rhou) (GenBank NM_133955, vs mice given only isoproterenol): −2.5
- FC Peroxisomal biogenesis factor 12 (Pex12) (GenBank NM_134025, vs mice given only isoproterenol): −2.4
- FC PHD finger protein 21A (Phf21a) (GenBank NM_138755, vs mice given only isoproterenol): 2.1
- FC Glutamate-ammonia ligase (Glu1) (GenBank U09114, vs mice given only isoproterenol): −3.5
- FC Gem GTPase (Gem) (GenBank U10551, vs mice given only isoproterenol): −2.8
- FC P19-protein tyrosine phosphatase (Ptpn12) (GenBank X63440, vs mice given only isoproterenol): −1.5
- Cyclin G2 (Ccng2), Microarray FC [1]: −3.1 FC
- Cyclin-dependent kinase inhibitor 1A (p21) (Cdkn1a), Microarray FC [1]: −6.5 FC
- Cytokine inducible SH2-containing protein 3 (Socs3), Microarray FC [1]: −4.9 FC
- DNA-damage-inducible transcript 4 (Ddit4), Microarray FC [1]: −5.6 FC
- GATA binding protein 4 (Gata4), Microarray FC [1]: 2.7 FC
- Gem GTPase (Gem), Microarray FC [1]: −2.8 FC
- Lipocalin 2 (Lcn2), Microarray FC [1]: −13.3 FC
- Matrix metalloproteinase 3 (Mmp3), Microarray FC [1]: −2.9 FC
- Metallothionein 1 (MT2), Microarray FC [1]: −5.5 FC
- NADPH oxidase 4 (Nox4), Microarray FC [1]: −3.2 FC
- Oncostatin receptor (Osmr), Microarray FC [1]: −2.6 FC
- Phospholipase A2 group VII (platelet-activating factor acetylhydrolase, plasma) (Pla2g7), Microarray FC [1]: −2.2 FC
- S100 calcium binding protein A8 (calgranulin A) (S100a8), Microarray FC [1]: −19.9 FC
- S100 calcium binding protein A9 (calgranulin B) (S100a9), Microarray FC [1]: −14.0 FC
- SET and MYND domain containing 1 (Smyd1), Microarray FC [1]: 2.7 FC
- Serine protease inhibitor 2-2 (Spi2-2) (Serpin3n), Microarray FC [1]: −9.7 FC
- Transformation related protein 53 inducible nuclear protein 1 (Trp53inp1), Microarray FC [1]: −3.5 FC
- Tubulin, alpha 4 (Tuba4), Microarray FC [1]: 5.8 FC
- FC Ankyrin repeat domain 47 (Ankrd47), C79906 [2]: −2.0 fold
- FC Procollagen, type IV, alpha 1 (Col4a1), AW536690 [2]: −2.4 fold
- FC cDNA, AV293532 [3]: −1.5 fold
- FC cDNA, BG073457 [3]: −1.9 fold
- FC cDNA, BI689897 [3]: −1.8 fold
- FC AT rich interactive domain 5B (Mrf1 like) (Arid5b), BB079486 [4]: −2.0 fold
- FC Actin binding LIM protein family, member 3 (Ablim3), BB667786 [4]: −2.4 fold
- FC Chloride intracellular channel 5 (Circ5), AA210377 [4]: −1.7 fold
- FC Fatty acid binding protein 4, adipocyte (Fabp4), BC002148 [4]: −2.1 fold
- FC cDNA, AK005293 [4]: −1.8 fold
- FC cDNA, BM215139 [4]: −1.7 fold
- FC Chitinase 3-like 3; chitinase 3-like 4, AY065557 [5]: −2.4 fold
- FC cDNA, BI683916 [5]: −2.6 fold
- FC Casitas B-lineage lymphoma b (Cblb), AV276986 [6]: −1.7 fold
- FC Choline kinase (Chk), NM_013490 [6]: −1.9 fold
- FC Coiled-coil domain containing 85A (Ccdc85a), AW060797 [6]: −2.0 fold
- FC Transglutaminase 2, C polypeptide (Tgm2), AW321975 [6]: −1.8 fold
- FC cDNA, AV228737 [6]: −2.1 fold
- FC cDNA, BB447627 [6]: −1.6 fold
- FC Adenosine deaminase (Ada), NM_007398 [7]: −2.4 fold
- FC CXC chemokine (angie2) (Cxcl13), AF030636 [7]: −2.2 fold
- FC EST, AV032095 [7]: −1.8 fold
- FC EST, BE630073 [7]: −2.0 fold
- FC cDNA, AI788755 [7]: −2.3 fold
- FC cDNA, BB431047 [7]: −2.2 fold
- FC Angiogenin, ribonuclease A family, member 1 (Ang1), AI385586 (mouse heart, vs isoproterenol only (CH), CH vs normal 2.1, second AI385586 line): −1.6 fold
- FC Amine oxidase, copper containing 3 (Aoc3), NM_009675 [8]: −2.4 fold
- FC CD14 antigen (CD14), NM_009841 [8]: −2.0 fold
- FC Cyclin G2 (Ccng2), U95826 [8]: −2.5 fold
- FC Flavin containing monooxygenase 1 (Fmo1), BC011229 [8]: −2.0 fold
- FC RAN binding protein 9 (Ranbp9), mRNA., NM_019930 [8]: −2.3 fold
- FC cDNA, BB408123 [8]: −2.0 fold
- FC cDNA, BB769119 [8]: −2.2 fold
- FC cDNA, BG075321 [8]: −2.5 fold
- FC cDNA, BG919470 [8]: −2.0 fold
- FC A disintegrin-like and metallopeptidase (reprolysin type) with thrombospondin (ADAMTS)-like 2 (Adamtsl2), AK020831 [9]: −1.8 fold
- FC CCAATenhaer binding protein (CEBP), beta (Cebpb), NM_009883 [9]: −1.9 fold
- FC cDNA, BB248249 [9]: −2.1 fold
- FC cDNA, BB258019 [9]: −2.3 fold
- FC cDNA, BB272245 [9]: −1.6 fold
- FC cDNA, BC003209 [9]: −2.1 fold
- FC cDNA, BF466929 [9]: −2.8 fold
- FC Apical protein, Xenopus laevis-like (Apx1), BQ176992 [10]: −1.7 fold
- FC Purine-nucleoside phosphorylase (Pnp), BC003788 [10]: −2.0 fold
- FC cDNA, BB398891 [10]: −2.2 fold
- FC cDNA, BC027342 [10]: −2.8 fold
- FC ATP-binding cassette, sub-family G (WHITE), member 2 (Abcg2), NM_011920 [11]: −1.7 fold
- FC Angiogenin, ribonuclease A family, member 1 (Ang1), NM_007447 [11]: −2.1 fold
- FC ESTs, AI447357 [11]: −2.5 fold
- FC cDNA, BB787946 [11]: −2.3 fold
- FC cDNA, BE956940 [11]: −2.2 fold
- FC cDNA, BG065702 [11]: −2.5 fold
- FC Casitas B-lineage lymphoma b (Cblb), BB205662 [12]: −2.1 fold
- FC Cysteine proteinase cathepsin L (Ctsl), J02583 [12]: −2.1 fold
- FC Dipeptidase 1 (Dpep1), NM_007876 [12]: −2.3 fold
- FC Fc fragment of IgG, low affinity IIIa, receptor (Fcrl3), BC027310 [12]: −2.7 fold
- FC cDNA, AV234245 [12]: −1.8 fold
- FC cDNA, AW552579 [12]: −2.4 fold
- FC Bcl2-like (Bcl211), BM228788 [13]: −1.9 fold
- FC Ceruloplasmin (Cp), NM_007752 [13]: −1.7 fold
- FC G7e protein, NM_033075 [13]: −2.2 fold
- FC Mitogen activated protein kinase kinase kinase 8 (Map3k8), NM_007746 [13]: −3.0 fold
- FC cDNA, BB200607 [13]: −2.7 fold
- FC cDNA, BC019553 [13]: 1.7 fold
- FC cDNA, BG071024 [13]: −2.8 fold
- FC cDNA, BQ174442 [13]: −2.2 fold
- FC cDNA, AV365503 (mouse heart, vs isoproterenol only (CH), CH vs normal 2.8, first AV365503 line): −3.0 fold
- FC Carbonic anhydrase 4 (Car4), NM_007607 (mouse heart, vs isoproterenol only (CH), CH vs normal 2.8, second NM_007607 line): −4.3 fold
- FC ChaC, cation transport regulator-like 1 (Chac1), BC025169 [14]: −2.6 fold
- FC Decorin (Dcn), AV321547 [14]: −2.0 fold
- FC Glycoprotein (transmembrane) nmb (Gpnmb), NM_053110 [14]: −2.0 fold
- FC cDNA, BC004065 [14]: −3.1 fold
- FC cDNA, BC020080 [14]: −3.4 fold
- FC Amyotrophic lateral sclerosis 2 (juvenile) chromosome region, candidate 13 (Als2cr13), AV326938 [15]: −1.6 fold
- FC Chromodomain protein, Y chromosome-like (Cdyl), NM_009881 [15]: −2.0 fold
- FC C-type lectin domain family 1, member a (Clec1a), BB035924 [16]: −2.2 fold
- FC Casitas B-lineage lymphoma b (Cblb), AW545867 [16]: −2.1 fold
- FC Prostaglandin D synthetase (Ptdgs), AB006361 [16]: −2.3 fold
- FC cDNA, AA939619 [16]: −3.1 fold
- FC cDNA, AI790538 [16]: −2.0 fold
- FC Carbonic anhydrase 4 (Car4), NM_007607 (mouse heart, vs isoproterenol only (CH), CH vs normal 3.1, first NM_007607 line): −5.2 fold
- FC cDNA, AV365503 (mouse heart, vs isoproterenol only (CH), CH vs normal 3.1, second AV365503 line): −2.8 fold
- FC CUB and zona pellucida-like domains 1 (Cuzd1), NM_008411 [17]: −1.7 fold
- FC Chemokine (C—C motif) ligand 6 (Cc16) (MRP-1), BC002073 [17]: −1.9 fold
- FC G7e protein, BC027314 [17]: −3.1 fold
- FC Serine (or cysteine) peptidase inhibitor, clade A, member 3G (Serpina3g), BC002065 [17]: −3.6 fold
- FC cDNA, AV084904 [17]: −1.7 fold
- FC cDNA, AV369812 [17]: −2.5 fold
- FC cDNA, BB829165 [17]: −3.1 fold
- FC cDNA, BG297038 [17]: −3.3 fold
- FC cDNA, NM_133898 [17]: −3.3 fold
- FC Angiogenin, ribonuclease A family, member 1 (Ang1), AI385586 (mouse heart, vs isoproterenol only (CH), CH vs normal 3.2, first AI385586 line): −2.1 fold
- FC Pyruvate dehydrogenase kinase 4 (Pdk4), NM_013743 (mouse heart, vs isoproterenol only (CH), CH vs normal 3.3): −3.1 fold
